Data: PMC6315173, “Characterization of the Apelin/Elabela Receptors (APLNR) in Chickens, Turtles, and Zebrafish: Identification of a Novel Apelin-Specific Receptor in Teleosts” (Frontiers in Endocrinology, 2018)
Read-outs that look alike come from different tables or passages of the source. Positions of bridges follow the written chain, without caps; N, C: chain ends. Residues, ends and D or L forms follow the SMILES beside them. No end group written: not given here.

How the values were obtained:
Assay type in all cases: cell-based
[1] = biological target: T1, zebrafish APLNR2b (zfAPLNR2b) (Danio rerio, UniProt A0T2N3); assay: pGL3-CRE-luciferase reporter assay, HEK293 cells expressing zebrafish APLNR2b
T1 construct: the open reading frame (ORF) of each APLNR was amplified from the animal; expressed in transfected cells; host or cells: HEK293
T1 sequence (A0T2N3 1-359): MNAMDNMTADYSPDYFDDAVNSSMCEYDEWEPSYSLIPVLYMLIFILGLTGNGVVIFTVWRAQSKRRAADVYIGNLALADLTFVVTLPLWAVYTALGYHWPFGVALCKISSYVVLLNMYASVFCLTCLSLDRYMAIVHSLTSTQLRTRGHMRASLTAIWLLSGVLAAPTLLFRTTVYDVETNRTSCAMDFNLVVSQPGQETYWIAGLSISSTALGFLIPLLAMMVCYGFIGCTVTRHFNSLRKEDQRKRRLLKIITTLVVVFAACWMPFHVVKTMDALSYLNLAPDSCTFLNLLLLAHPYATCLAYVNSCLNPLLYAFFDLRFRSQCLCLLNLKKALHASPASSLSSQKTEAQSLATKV
Protocol: (§1) In brief, HEK293 cells were cultured on a six-well plate and grown for 24 h before transfection. The cells were then transfected with a mixture containing 700 ng pGL3-CRE-Luciferase reporter construct (or pGL4-SRE-Luciferase reporter construct), 200 ng of receptor expression plasmid [or empty pcDNA3.1(+) vector as a negative control], and 2 μl jetPRIME (Polyplus Transfection, Illkirch, France) in 200 μl buffer. Twenty-four hour later, HEK293 cells were sub-cultured into a 96-well plate at 37°C for an additional 24 h before treatment. After removal of medium from the 96-well plate, the cells were treated with 100 μl peptide-containing medium (or peptide-free medium) for 6 h in the presence or absence of forskolin (5 μM). Finally, HEK293 cells were lysed with 1 × passive lysis buffer for luciferase assay (Promega, Madison, WI, USA) and the luciferase activity of the cell lysate was measured by a Multimode microplate Reader (TriStar LB 941, EG&G Berthold, Germany) according to the manufacturer's instruction.
(§2) The luciferase activity in each treatment group was expressed as the relative fold changes as compared with their respective control groups. The data were analyzed by non-linear regression followed by one-way ANOVA using GraphPad Prism 5 (GraphPad, San Diego, CA, USA). To validate the results, all experiments were repeated at least twice.

[2] = biological target: T2, zebrafish APLNR2a (zfAPLNR2a) (Danio rerio, UniProt Q7SZP9); assay: pGL3-CRE-luciferase reporter assay, HEK293 cells expressing zebrafish APLNR2a
T2 construct: the open reading frame (ORF) of each APLNR was amplified from the animal; expressed in transfected cells; host or cells: HEK293
T2 sequence (Q7SZP9 1-362): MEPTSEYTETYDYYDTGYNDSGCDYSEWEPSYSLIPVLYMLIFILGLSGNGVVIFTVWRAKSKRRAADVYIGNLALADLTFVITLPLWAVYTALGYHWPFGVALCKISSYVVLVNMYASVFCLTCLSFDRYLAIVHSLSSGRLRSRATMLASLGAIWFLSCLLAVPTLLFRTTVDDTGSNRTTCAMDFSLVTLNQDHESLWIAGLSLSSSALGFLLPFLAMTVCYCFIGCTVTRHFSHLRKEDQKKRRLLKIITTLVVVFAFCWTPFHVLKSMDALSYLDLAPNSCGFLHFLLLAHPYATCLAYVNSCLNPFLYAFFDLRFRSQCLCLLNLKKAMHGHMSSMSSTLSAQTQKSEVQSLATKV
Protocol: as §1, §2

[3] = biological target: T3, human APLNR (hAPLNR1) (Homo sapiens, UniProt P35414); assay: pGL3-CRE-luciferase reporter assay, HEK293 cells expressing human APLNR; conditions: SEM; read-out: EC50 (nM) hAPLNR
T3 construct: human APLNR ORF was also amplified by PCR and cloned into pcDNA3.1 (+) expression vector; expressed in transfected cells; host or cells: HEK293
T3 sequence (P35414 1-380): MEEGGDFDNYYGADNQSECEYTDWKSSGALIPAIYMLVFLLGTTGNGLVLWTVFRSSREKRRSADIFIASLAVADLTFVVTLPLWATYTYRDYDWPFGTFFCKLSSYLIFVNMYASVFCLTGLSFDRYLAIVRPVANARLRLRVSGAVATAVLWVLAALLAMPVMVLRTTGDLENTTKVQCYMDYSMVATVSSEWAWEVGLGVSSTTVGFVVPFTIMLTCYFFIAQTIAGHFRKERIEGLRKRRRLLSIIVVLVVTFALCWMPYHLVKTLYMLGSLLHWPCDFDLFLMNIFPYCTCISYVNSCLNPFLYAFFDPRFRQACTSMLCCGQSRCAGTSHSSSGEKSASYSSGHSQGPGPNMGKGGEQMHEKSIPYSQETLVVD
Protocol: In brief, HEK293 cells were cultured on a six-well plate and grown for 24 h before transfection. The cells were then transfected with a mixture containing 700 ng pGL3-CRE-Luciferase reporter construct (or pGL4-SRE-Luciferase reporter construct), 200 ng of receptor expression plasmid [or empty pcDNA3.1(+) vector as a negative control], and 2 μl jetPRIME (Polyplus Transfection, Illkirch, France) in 200 μl buffer. Twenty-four hour later, HEK293 cells were sub-cultured into a 96-well plate at 37°C for an additional 24 h before treatment. After removal of medium from the 96-well plate, the cells were treated with 100 μl peptide-containing medium (or peptide-free medium) for 6 h in the presence or absence of forskolin (5 μM). […] The luciferase activity in each treatment group was expressed as the relative fold changes as compared with their respective control groups. The data were analyzed by non-linear regression followed by one-way ANOVA using GraphPad Prism 5 (GraphPad, San Diego, CA, USA). To validate the results, all experiments were repeated at least twice.

Compound: CSCC[C@H](NC(=O)[C@@H]1CCCN1C(=O)CNC(=O)[C@H](CCCCN)NC(=O)[C@H](Cc1c[nH]cn1)NC(=O)[C@H](CO)NC(=O)[C@H](CC(C)C)NC(=O)[C@H](CCCNC(=N)N)NC(=O)[C@@H]1CCCN1C(=O)[C@H](CCCNC(=N)N)NC(=O)[C@@H]1CCCN1)C(=O)N1CCC[C@H]1C(=O)N[C@@H](Cc1ccccc1)C(=O)O [cApelin-13]
- EC50 ([1]; SEM): 12.7 ± 5.21 nM
- EC50 ([2]; SEM): 2.82 ± 1.18 nM
- EC50 [3]: 0.55 ± 0.21 nM

Compound: CSCC[C@H](NC(=O)[C@@H](N)CS)C(=O)N1CCC[C@H]1C(=O)N[C@@H](CC(C)C)C(=O)N[C@@H](Cc1cnc[nH]1)C(=O)N[C@@H](CO)C(=O)N[C@@H](CCCNC(=N)N)C(=O)N[C@H](C(=O)N1CCC[C@H]1C(=O)N[C@@H](Cc1ccccc1)C(=O)N1CCC[C@H]1C(=O)O)C(C)C [cELA-11]
- EC50 [1]: > 100 nM
- EC50 [2]: > 100 nM

Compound: CSCC[C@H](NC(=O)[C@@H]1CSSC[C@H](NC(=O)[C@H](CC(N)=O)NC(=O)[C@H](Cc2c[nH]cn2)NC(=O)[C@H](CCCNC(=N)N)NC(=O)[C@H](Cc2c[nH]cn2)NC(=O)[C@H](CC(C)C)NC(=O)[C@H](CCCCN)NC(=O)[C@H](CCCNC(=N)N)NC(=O)[C@H](CCCNC(=N)N)NC(=O)[C@H](CC(C)C)NC(=O)[C@H](C)NC(=O)[C@H](CC(C)C)NC(=O)[C@H](CC(N)=O)NC(=O)[C@H](C)NC(=O)[C@@H]2CCCN2C(=O)[C@H](CCCNC(=N)N)NC(=O)[C@@H](N)CCC(N)=O)C(=O)N[C@@H](CO)C(=O)N[C@@H](Cc2c[nH]cn2)C(=O)N[C@@H](CCCNC(=N)N)C(=O)N[C@@H](CCCNC(=N)N)C(=O)N1)C(=O)N1CCC[C@H]1C(=O)N[C@@H](CC(C)C)C(=O)N[C@@H](Cc1c[nH]cn1)C(=O)N[C@@H](CO)C(=O)N[C@@H](CCCNC(=N)N)C(=O)N[C@H](C(=O)N1CCC[C@H]1C(=O)N[C@@H](Cc1ccccc1)C(=O)N1CCC[C@H]1C(=O)O)C(C)C [cELA-32a] (H-QRPANLALRRKLHRHNCSHRRCMPLHSRVPFP-OH; disulfide 17-22)
- EC50 ([1]; SEM): 2.55 ± 0.11 nM
- EC50 ([2]; SEM): 1.81 ± 0.74 nM
- EC50 [3]: 0.26 ± 0.07 nM

Compound: CSCC[C@H](NC(=O)[C@H](CS)NC(=O)[C@H](CCCNC(=N)N)NC(=O)[C@H](CCCNC(=N)N)NC(=O)[C@H](Cc1c[nH]cn1)NC(=O)[C@H](CO)NC(=O)[C@H](CS)NC(=O)[C@H](CC(N)=O)NC(=O)[C@H](Cc1c[nH]cn1)NC(=O)[C@H](CCCNC(=N)N)NC(=O)[C@H](Cc1c[nH]cn1)NC(=O)[C@H](CC(C)C)NC(=O)[C@H](CCCCN)NC(=O)[C@H](CCCNC(=N)N)NC(=O)[C@H](CCCNC(=N)N)NC(=O)[C@H](CC(C)C)NC(=O)[C@H](C)NC(=O)[C@H](CC(C)C)NC(=O)[C@H](CC(N)=O)NC(=O)[C@H](C)NC(=O)[C@@H]1CCCN1C(=O)[C@H](CCCNC(=N)N)NC(=O)[C@@H](N)CCC(N)=O)C(=O)N1CCC[C@H]1C(=O)N[C@@H](CC(C)C)C(=O)N[C@@H](Cc1c[nH]cn1)C(=O)N[C@@H](CO)C(=O)N[C@@H](CCCNC(=N)N)C(=O)N[C@H](C(=O)N1CCC[C@H]1C(=O)N[C@@H](Cc1ccccc1)C(=O)N1CCC[C@H]1C(=O)O)C(C)C [cELA-32b] (H-QRPANLALRRKLHRHNCSHRRCMPLHSRVPFP-OH)
- EC50 ([1]; SEM): 1.02 ± 0.23 nM
- EC50 ([2]; SEM): 1.68 ± 0.58 nM
- EC50 [3]: 0.28 ± 0.05 nM

Compound: LVRPRGARRGNVRRPGGWRRLRRPRPRLSHKGPMPF [cApelin-36]
- EC50 ([1]; SEM): 0.9 ± 0.33 nM
- EC50 ([2]; SEM): 2.96 ± 1.26 nM
- EC50 [3]: 0.16 ± 0.06 nM
